US9278071B2, “Organic compound nano-powder, method for producing the same and suspension” (Activus Pharma Co., Ltd., priority 2012, dated 2016)

assay: Particle diameter distribution by dynamic light scattering photon correlation method (Delsa Nano); format: physicochemical; conditions: starting organic compound powder before mixing/milling
Excerpt: The term “average particle diameter” used in present specification means a mathematical average diameter (here, defined as the Dav value) in the particle diameter distribution as measured by a dynamic light scattering photon correlation method. The term “50%-diameter” (defined as median diameter or the D50 value) means a certain particle diameter when amount of a larger side becomes equal to amount of a smaller side of the particle diameters divided into two a powder from the certain particle diameter. The term “90%-diameter” (D90 value) means the particle diameter of the particle at the position of 90% when counted from the smallest size zero (minimum) to 100% (maximum) of the particle diameter in the particle diameter distribution as measured by the above-mentioned measurement method. The term “10%-diameter” (D10 value) means the particle diameter of the particle at the position of 10% when counted from the smallest size zero (minimum) to 100% (maximum) of the particle diameter in the particle diameter distribution as measured by the above-mentioned measurement method. […]

Row | Particle diameter distribution, D10, before milling [nm] | Particle diameter distribution, D50, before milling [nm] | Particle diameter distribution, D90, before milling [nm] | Particle diameter distribution, Dav (average particle diameter), before milling [nm] | Molecule
1 | 2277 | 6872 | 22850 | 10160 | CC[C@H]1OC(=O)[C@H](C)[C@@H](O[C@H]2C[C@@](C)(OC)[C@@H](O)[C@H](C)O2)[C@H](C)[C@@H](O[C@@H]2O[C@H](C)C[C@H](N(C)C)[C@H]2O)[C@](C)(OC)C[C@@H](C)C(=O)[C@H](C)[C@@H](O)[C@]1(C)O [clarithromycin powder, clarithromycin]
2 | 1389 | 2636 | 5709 | 3148 | CC(=O)[C@@]1(O)CC[C@H]2[C@@H]3C[C@H](C)C4=CC(=O)C=C[C@]4(C)[C@@]3(F)[C@@H](O)C[C@@]21C [fluorometholone powder, fluorometholone]
3 | 4422 | 15070 | 33850 | 17270 | COc1cc(/C=C/C(=O)CC(=O)/C=C/c2ccc(O)c(OC)c2)ccc1O [synthetic curcumin powder, curcumin]

assay: Particle size of the granular carbohydrate compounds used; format: physicochemical; conditions: granular carbohydrate compound as used
Excerpt: The term “Dav” means an average particle diameter (Dav). In the table, the term “D10” means the particle diameter (D10 value) of the particle at the position of 10% when counted from the smallest size zero (minimum) to 100% (maximum) of the particle diameter in a particle diameter distribution. The term “D50” means a certain particle diameter (D50 value) when amount of a larger side becomes equal to amount of a smaller side of the particle diameters divided into two a powder from the certain particle diameter. The term “D90” means the particle diameter (D90 value) of the particle at the position of 90% when counted from the smallest size zero (minimum) to 100% (maximum) of the particle diameter in the particle diameter distribution. The same definitions shall apply to following tables.

Row | Molecule | Particle Size D10 [μm] | Particle Size D50 [μm] | Particle Size D90 [μm] | Particle Size Dav [μm]
4 | O[C@H]1[C@H](O)[C@@H](O)[C@H](O)[C@@H](O)[C@H]1O [Inositol, inositol] | 116 | 247 | 496 | 280
5 | O.OC[C@H]1O[C@@H](O[C@H]2[C@H](O)[C@@H](O)C(O)O[C@@H]2CO)[C@H](O)[C@@H](O)[C@H]1O (stereo partly shown) [Lactose monohydrate, lactose monohydrate] | 3 | 20 | – | 45
6 | OC[C@@H](O)[C@@H](O[C@H]1O[C@H](CO)[C@@H](O)[C@H](O)[C@H]1O)[C@H](O)[C@@H](O)CO [Maltitol, maltitol] | 7 | 30 | 64 | 33
7 | O=C[C@H](O)[C@@H](O)[C@H](O[C@@H]1O[C@H](CO)[C@@H](O)[C@H](O)[C@H]1O)[C@H](O)CO [Cellobiose, cellobiose] | 7 | 38 | 76 | 41
8 | OC[C@@H](O)[C@@H](O)[C@H](O)[C@H](O)CO [Mannitol, D-(−)-mannitol] | 24 | 66 | 144 | 79
9 | O=C(CO)[C@@H](O)[C@H](O)[C@H](O)CO [Fructose, fructose] | 158 | 311 | 566 | 339
10 | OC[C@@H](O)[C@@H](O)CO [Erythritol, erythritol] | 63 | 138 | 237 | 147

The next lines start with the values.

Row | Particle Size D10 [μm] | Particle Size D50 [μm] | Particle Size D90 [μm] | Particle Size Dav [μm] | Molecule
11 | 16 | 38 | 63 | 38 | dextrin
12 | 383 | 615 | 912 | 631 | OC[C@@H](O)[C@H](O)[C@@H](O)CO [Xylitol, xylitol]
13 | 75 | 154 | 249 | 159 | OC[C@@H](O)[C@@H](O)[C@H](O)[C@@H](O)CO [Sorbitol, sorbitol]
14 | 7 | 20 | 50 | 25 | OC[C@H]1O[C@H](O[C@H]2O[C@H](CO)[C@@H](O)[C@H](O)[C@H]2O)[C@H](O)[C@@H](O)[C@@H]1O [Trehalose, trehalose]
